Measured values reported in US20090087440A1, “Methods for Treating Cancer” (SCHERING CORPORATION, priority 2001, published 2009).
Entries after “also recorded” stand apart in the source; their conditions may differ.

How the values were obtained:
[1] = test system: C26-6CK tumor-infiltrating dendritic cells; assay: IL-12 p70 and TNFα ELISA in supernatants of activated C26-6CK TIDC (Example II); format: cell-based, mouse
[2] = test system: C26-6CK tumor-infiltrating dendritic cells; assay: Mixed leukocyte reaction with activated C26-6CK TIDC (Example III); format: cell-based, mouse; conditions: overnight activation, 5 days with allogeneic T cells
C26 tumor = assay: Therapeutic effect in the C26 tumor model (Example VI); format: in vivo, BALB/c mice
Text: Control antibody was purified GL113 antibody.

C26-6CK tumor [3] = assay: Therapeutic effect of CpG 1668+indomethacin in the C26-6CK tumor model (Example X); format: in vivo, BALB/c mice; conditions: C26-6CK s.c.; 5 μg CpG 1668 intra-tumorally Day 7, 14, 21; indomethacin 5 μg/ml in drinking water day 5 to 28
C26-6CK tumor [4] = assay: Therapeutic effect in the C26-6CK tumor model (Example V)
Method: • 1×10^5 C26-6CK tumor cells were implanted s.c. at Day 0 in groups of seven 8 week-old female BALB/c mice and treated as follow: • 10 μg of CpG 1668 were injected peri- (when tumor too small) or intratumorally at Day 7, 14, and 21. • 250 μg anti-IL10R purified antibody were injected intraperitoneally twice a week starting at Day 7 (stop Day 24).
(§1) Tumor development was assessed three times a week by palpation and tumors measured using a caliper with tumor volume=I^2×L×0.4, I being the small diameter and L the large diameter. Mice were sacrificed when tumors exceeded 1500 mm^3 or for humane criteria.

B16F0 melanoma tumor = assay: Therapeutic effect in the B16F0 melanoma tumor model (Example VII)
Method: • 5×10^4 B16F0 tumor cells were implanted s.c. at Day 0 in groups of seven 8 week-old female C57BL/6 mice and treated as follow: • 5 μg of CpG 1668 were injected intra-tumorally at Day 7, 14, and 21. • 250 μg anti-IL10R purified antibody were injected intraperitoneally at Day 7, 14, and 21. Control antibody was purified GL113 antibody.
as §1

Bone marrow-derived DC = assay: Activation of bone marrow-derived DC cultured with C26 tumor supernatant (Example IX); format: cell-based, mouse; conditions: 10% v/v supernatant, indomethacin 1 μg/ml during supernatant preparation, anti-IL10R 10 μg/ml
Method: Bone marrow-derived DCs were obtained by culture of bone marrow progenitors with GM-CSF and TNFα for 5 days in the presence or absence of 10% v/v of a supernatant from C26 tumors. To prepare tumor supernatant, 0.5 cm C26 tumors grown subcutaneously in BALB/c mice were excised and minced, then cultured for 48 hours in 10 ml DMEM. The resulting supernatant was filtered at 0.2 μm and frozen before use. This supernatant contained 0.25 ng/ml IL-10 and 50 ng/ml PGE2, as determined by specific ELISA (R&D Systems). In order to inhibit PGE2 synthesis in the supernanant, the inhibitor of cyclo-oxygenase indomethacin (Sigma) was added at 1 μg/ml during the 48 h culture.
After 5 days, bone-marrow DC were activated with different combinations of optimal doses of LPS, IFNγ and anti-CD40 antibody in the presence or absence of 10 μg/ml anti-IL10R antibody. The activation of DC was measured by their expression of the co-stimulatory molecules CD40 and CD86 by FACS as well as by the production of IL-12 as detected by intra-cellular staining.

[5] = test system: C26-6CK tumor-infiltrating dendritic cells; assay: Activation of C26-6CK tumor-infiltrating DC with LPS, IFNγ and anti-CD40, compared with bone marrow-derived DC (Example I); format: cell-based, mouse

CpG 1668: TLR-9 ligand in the mouse, sequence TCC-ATG-ACG-TTC-CTG-ATG-CT (SEQ ID NO: 5), MWG Biotech (TCCATGACGTTCCTGATGCT; DNA, all phosphorothioate, methylation of C not given here)
IL-12 p70 production in culture supernatants (ELISA) ([1]; C26-6CK TIDC, GM-CSF 10 ng/ml, 24 h, CpG 1668 5 μg/ml, anti-IL10R 10 μg/ml): does not induce
activating tumor-infiltrating dendritic cells ([1]; Examples II and III): marginal effect
MLR stimulatory capacity of tumor-infiltrating DC (thymidine incorporation) [2]: minimally enhanced
overall anti-tumor effect (C26 tumor): marginal effect
mice that did not develop tumor (C26-6CK tumor [3]): 1/7
mice that did not develop a tumor (C26-6CK tumor [4]; C26-6CK s.c., 10 μg CpG 1668 peri- or intratumorally Day 7, 14, 21): 1/7
mean volume of tumors versus control group (C26-6CK tumor [4]; C26-6CK s.c., after three weeks): smaller than in the control group
overall anti-tumor effect (C26-6CK tumor [4]; C26-6CK tumor model): minor effect; also recorded: marginal effect
overall anti-tumor effect (B16F0 melanoma tumor): marginal effect

COc1ccc2c(c1)c(CC(=O)O)c(C)n2C(=O)c1ccc(Cl)cc1 [indomethacin]
relief of the inhibition of DC activation by C26 tumor supernatant (CD40, CD86, IL-12 expression) (Bone marrow-derived DC): relieved partially
mice that did not develop tumor (C26-6CK tumor [3]): 1/7

IFNγ: cytokine IFNγ (R&D Systems)
response of tumor-infiltrating DC to stimulation (co-stimulatory molecules, MLR, IL-12 and TNFα) [5]: did not respond
